In patent publication US7301024B2, “Crystalline forms of gatifloxacin and processes for preparation” (Teva Pharmaceutical Industries Ltd., priority 2002, dated 2007):

Assays:
[1] = solid-state form after storage at 40° C. and 75% relative humidity, analyzed by XRD; assay type: physicochemical; details: 3 months
Protocol: As used in connection with the present invention, x-ray diffraction refers to x-ray diffraction by the powder diffraction technique (PXRD). X-ray powder diffraction analysis was performed using a Scintag powder diffractometer with variable goniometer, a Cu source, and a solid state detector. A standard round aluminum sample holder with zero background quartz plate was used. Samples were scanned from 2° to 40° 2θ at 3° per minute. Reflections are reported as peak maxima in the Intensity vs. 2θ plots, and are subject to the normal experimental error (uncertainty). Wet samples were promptly analyzed “as is,” i.e., without drying or grinding prior to the analysis.
Gatifloxacin form CH2 can also be made by heating form Ω to between about 25° C. and about 50° C. at a relative humidity of about 60% to about 80%, preferably for at least about one month. Gatifloxacin so formed is a mixture of form Ω and form CH2.
4. Gatifloxacin form Ω (3 g) was heated to 40° C. at 75% of relative humidity for 3 months.

[2] = sesquihydrate compared with hemihydrate; cited from earlier work
[3] = room temperature; compared with the other crystalline forms of U.S. Pat. No. 6,413,969; cited from earlier work
[4] = compared with the other crystalline forms of U.S. Pat. No. 6,413,969; cited from earlier work
[5] = compared with hemihydrate; cited from earlier work

With `COc1c(N2CCNC(C)C2)c(F)cc2c(=O)c(C(=O)O)cn(C3CC3)c12` (racemic) [form Ω, (±)-1-cyclopropyl-6-fluoro-1,4-dihydro-8-methoxy-7-(3-methyl-1-piperazinyl)-4-oxo-3-quinolinecarboxylic acid] as the compound, how does the “crystalline form found by XRD after storage” value [1] read?
The value was “mixture of gatifloxacin form Ω and form CH2”.

With `COc1c(N2CCNC(C)C2)c(F)cc2c(=O)c(C(=O)O)cn(C3CC3)c12` (racemic) [hemihydrate, (±)-1-cyclopropyl-6-fluoro-1,4-dihydro-8-methoxy-7-(3-methyl-1-piperazinyl)-4-oxo-3-quinolinecarboxylic acid] as the compound, how does the hygroscopicity [2] read?
The hygroscopicity was “hygroscopic”.

With `COc1c(N2CCNC(C)C2)c(F)cc2c(=O)c(C(=O)O)cn(C3CC3)c12` (racemic) [pentahydrate, (±)-1-cyclopropyl-6-fluoro-1,4-dihydro-8-methoxy-7-(3-methyl-1-piperazinyl)-4-oxo-3-quinolinecarboxylic acid] as the compound, how does the aqueous solubility [3] read?
The aqueous solubility was “lowest”.

What about the thermodynamic stability [4] of the same compound?
Its thermodynamic stability is “most thermodynamically stable form”.

For `COc1c(N2CCNC(C)C2)c(F)cc2c(=O)c(C(=O)O)cn(C3CC3)c12` (racemic) [sesquihydrate, (±)-1-cyclopropyl-6-fluoro-1,4-dihydro-8-methoxy-7-(3-methyl-1-piperazinyl)-4-oxo-3-quinolinecarboxylic acid], which hygroscopicity [2] is on record?
The hygroscopicity was “less hygroscopic”.

What about the stability in manufacturing [5] of the same compound?
Its stability in manufacturing is “more stable in manufacturing”.
